Structures are written as SMILES. Structures can show the parent of a compound that is named as a salt. Some results are limits rather than exact numbers.

As usually defined, the melting point is the temperature of the solid-liquid transition. The compound `Cc1ncccc1Oc1ccc(NC(=O)N2CCc3cc(Br)c(C(F)(F)F)cc32)cn1` showed a melting point of 211 to 213 °C.

For `CSc1cc2c(cc1C(F)(F)F)N(C(=O)Nc1cc(F)cc(-c3cccnc3)c1)CC2` (as salt: hydrochloride) [Example 25, 1-(3-Fluoro-5-(pyrid-3-yl)phenylcarbamoyl)5-thiomethyl-6-trifluoromethyl-indoline Hydrochloride], the melting point was 202 to 203 °C.

`COc1cc2c(cc1C(F)(F)F)N(C(=O)Nc1ccc(-c3cccnc3)cc1)CC2` [Example 4, 1-[(3-Pyridyl)-4-phenyl Carbamoyl]-5-methoxy-6-trifluoromethylindoline] registered a melting point above 230 °C.

Consider `COc1cc2c(cc1C(F)(F)F)N(C(=O)Nc1ccc(-c3ccncc3)cc1)CC2` [Example 5, 1-[(4-Pyridyl)-4-phenyl Carbamoyl]-5-methoxy-6-trifluoromethyl Indoline], for which the melting point was above 210 °C.

Regarding `COc1cc2c(cc1C(F)(F)F)N(C(=O)Nc1cc(-c3cccnc3)ccc1F)CC2` [Example 9, 1-[2-Fluoro-5-(3-pyridyl) Phenyl Carbamoyl]-5-methoxy-6-trifluoromethyl Indoline], the melting point is 233 °C (dec.).

`CSc1cc2c(cc1C(F)(F)F)N(C(=O)Nc1cncc(-c3ccccc3)c1)CC2` [Example 11, 1-(5-Phenyl Pyrid-3-yl Carbamoyl)-5-methylthio-6-trifluoromethyl Indoline] gave a melting point of 208 to 214 °C.

Turning to `COc1cc2c(cc1C(F)(F)F)N(C(=O)Nc1cncc(-c3cccnc3)c1)CC2` [Example 12, 1-[5-(3-Pyridyl)-pyrid-3-yl Carbamoyl]-5-methoxy-6-trifluoromethyl Indoline], the melting point lay within 113 to 114 °C.

`COc1cc2c(cc1C(F)(F)F)N(C(=O)Nc1cncc(-c3ccc(C(F)(F)F)cc3)c1)CC2` [Example 13, 1-[5-(4-Trifluoromethylphenyl)-pyrid-3-yl Carbamoyl]-5-methoxy-6-trifluoromethyl Indoline] registered a melting point of 199 to 202 °C.

In turn, `COc1cc2c(cc1C(F)(F)F)N(C(=O)Nc1cncc(-c3ccc(C)cc3)c1)CC2` [Example 14, 1-[5-(4-Methylphenyl)-pyrid-3-yl Carbamoyl]-5-methoxy-6-trifluoromethyl Indoline] returned a melting point of 190 to 191 °C.

`COc1cc2c(cc1C(F)(F)F)N(C(=O)Nc1cncc(-c3cccs3)c1)CC2` [Example 15, 1-[5-(2-Thienyl)-pyrid-3-yl Carbamoyl]-5-methoxy-6-trifluoromethyl Indoline] yielded a melting point of 193 to 208 °C.

For `COc1cc2c(cc1C(F)(F)F)N(C(=O)Nc1cncc(-c3ccsc3)c1)CC2` [Example 16, 1-[5-(3-Thienyl)-pyrid-3-yl Carbamoyl]-5-methoxy-6-trifluoromethyl Indoline], the melting point was in the range of 165 to 167 °C.

Compound `COc1cc2c(cc1C(F)(F)F)N(C(=O)Nc1cncc(-c3ccc[nH]3)c1)CC2` [Example 17, 1-[5-(2-Pyrrolyl)-pyrid-3-yl Carbamoyl]-5-methoxy-6-trifluoromethyl Indoline] showed a melting point of 218 to 219 °C.

In the case of `COc1cc2c(cc1C(F)(F)F)N(C(=O)Nc1cncc(-c3ccncc3)c1)CC2` [Example 18, 1-[5-(4-Pyridyl)-pyrid-3-yl Carbamoyl]-5-methoxy-6-trifluoromethyl Indoline], the melting point was 230 to 234 °C.

The compound `COc1cc2c(cc1C(F)(F)F)N(C(=O)Nc1cncc(-c3c(F)cccc3F)c1)CC2` [Example 22, 1-(5-(2,6-Difluorophenyl)-3-pyridylcarbamoyl)-5-methoxy-6-trifluoromethylindoline] showed a melting point of 217 to 219 °C.

`Cc1cc2c(cc1Cl)N(C(=O)Nc1ccc(C)c(-c3cccnc3)c1)CC2` [Example 23, 6-Chloro-5-methyl-1-(4-methyl-3-(pyrid-3-yl)-phenylcarbamoyl) Indoline]: the melting point lay in the range of 202 to 203 °C.

`COc1cc2c(cc1C(F)(F)F)N(C(=O)Nc1cccc(-c3noc(C)n3)c1)CC2` [Example 27, 5-Methoxy-1-(5-methyl-(1,2-4-oxadiazol-3-yl)-phenylcarbamoyl)-6-trifluoromethyl Indoline]: the melting point lay in the range of 203 to 204 °C.

`COc1cc2c(cc1C(F)(F)F)N(C(=O)Nc1cc(Br)c(C)c(-c3cccnc3)c1)CC2` [Example 33, 1-[3-Bromo-4-methyl-5-(3-pyridyl)phenylcarbamoyl]-5-methoxy-6-trifluoromethylindoline] gave a melting point of 216 to 218 °C.

As to `COc1cc2c(cc1C(F)(F)F)N(C(=O)Nc1cccc(-c3cncc4ccccc34)c1)CC2` [Example 34, 1-[3-(4-Isoquinolyl)phenylcarbamoyl]-5-methoxy-6-trifluoromethyl Indoline], the melting point fell in the range of 211 to 215 °C.

Turning to `COc1cc2c(cc1C(F)(F)F)N(C(=O)Nc1ccc(-c3cccnc3)nc1)CC2` [Example 36, 1-[6-(3-Pyridyl)-pyrid-3-ylcarbamoyl]-5-methoxy-6-trifluoromethylindoline], the melting point is above 270 °C.

Turning to `COc1cc2c(cc1C(F)(F)F)N(C(=O)Nc1ccc3c(ccn3-c3ccncc3)c1)CC2` [Example 59, 1-(1-(4-Pyridyl)-5-indolylcarbamoyl)-5-methoxy-6-trifluoromethylindoline], the melting point fell in the range of 206 to 211 °C.

Take `COc1cc2c(cc1C(F)(F)F)N(C(=O)Nc1ccc(CSc3ccncc3)cc1)CC2` [Example 60, 5-Methoxy-6-trifluoromethyl-1-[4-(pyridin-4-ylthiomethyl)phenyl Carbamoyl]indoline]: the melting point was 174 to 175 °C.

`COc1cc2c(cc1C(F)(F)F)N(C(=O)Nc1ccc(SCc3ccncc3)cc1)CC2` [Example 62, 5-Methoxy-6-trifluoromethyl-1-[4-(pyridin-4-ylmethylthio)phenyl Carbamoyl]indoline] returned a melting point of 160 to 163 °C.

`COc1cc2c(cc1C(F)(F)F)N(C(=O)Nc1ccnc(Oc3cccnc3)c1)CC2` [Example 64] showed a melting point of 223 to 225 °C.

For the compound `CSc1cc2c(cc1C(F)(F)F)N(C(=O)Nc1ccc(Oc3ccc(C)nc3)nc1)CC2` [Example 66, 5-Methylthio-6-trifluoromethyl-1-[6-(6-methylpyridin-3-yloxy)pyridin-3-ylcarbamoyl]indoline], the melting point fell in the range of 206 to 208 °C.

`COc1cc2c(cc1C(F)(F)F)N(C(=O)Nc1ccc(Sc3cccnc3)nc1)CC2` [Example 67, 5-Methoxy-6-trifluoromethyl-1-[6-(pyridin-3-ylthio)pyridin-3-ylcarbamoyl]indoline] gave a melting point of 208 to 210 °C.

For the compound `CSc1cc2c(cc1C(F)(F)F)N(C(=O)Nc1ccc(C(=O)NCc3cccnc3)cc1)CC2` [Example 68, 5-Methylthio-6-trifluoromethyl-1-[4-(pyrid-3-ylmethyl)amido Phenyl Carbamoyl]indoline], the melting point is above 250 °C.

As to `COc1cc2c(cc1C(F)(F)F)N(C(=O)Nc1ccc3c(ccn3Cc3cccnc3)c1)CC2` [Example 71, 1-(1-(3-Pyridylmethyl)-5-indolylcarbamoyl)-5-methoxy-6-trifluoromethylindoline], the melting point lay within 243 to 246 °C.

For `COc1cc2c(cc1C(F)(F)F)N(C(=O)Nc1ccc3c(ccn3Cc3ccncc3)c1)CC2` [Example 72, 1-(1-(4-Pyridylmethyl)-5-indolylcarbamoyl)-5-methoxy-6-trifluoromethylindoline], the melting point fell in the range of 215 to 218 °C.

Compound `COc1cc2c(cc1C(F)(F)F)N(C(=O)Nc1ccc3c(ccn3-c3cccnc3)c1)CC2` [Example 73, 1-(1-(3-Pyridyl)-5-indolylcarbamoyl)-5-methoxy-6-trifluoromethyl Indoline] yielded a melting point of 202 to 204 °C.

In turn, `COc1cc2c(cc1C(F)(F)F)N(C(=O)Nc1ccc(Oc3cnccc3C)nc1)CC2` [Example 82, 5-Methoxy-6-trifluoromethyl-1-[6-(4-methylpyridin-3-yloxy)pyridin-3-ylcarbamoyl]indoline] gave a melting point of 188 to 191 °C.

The compound `COc1cc2c(cc1C(F)(F)F)N(C(=O)Nc1cccc(-c3cccnc3)c1)CC2` [Example 83] yielded a melting point of 192 to 193 °C.

Compound `COc1cc2c(cc1C(F)(F)F)N(C(=O)Nc1cccc(-c3cccnc3)c1OC)CC2` [Example 84] registered a melting point of 196 to 197 °C.

As to `COc1cc2c(cc1C(F)(F)F)N(C(=O)Nc1cccc(-c3cccnc3)c1Cl)CC2` [Example 85], the melting point was 214 to 216 °C.

`COc1cc2c(cc1C(F)(F)F)N(C(=O)Nc1cccc(-c3cnc4ccccc4c3)c1)CC2` [Example 86]: the melting point was 240 °C (dec.).

For `COc1cc2c(cc1C(F)(F)F)N(C(=O)Nc1cncc(-c3ccc(F)cc3)c1)CC2` [Example 87], the melting point is above 200 °C.

Compound `COc1cc2c(cc1C(F)(F)F)N(C(=O)Nc1cncc(-c3cc(F)cc(F)c3)c1)CC2` [Example 88] came in with a melting point of 226 to 229 °C.

`COc1cc2c(cc1C(F)(F)F)N(C(=O)Nc1cncc(-c3ccc(Cl)cc3)c1)CC2` [Example 89] showed a melting point of 198 to 199 °C.

Regarding `COc1cc2c(cc1C(F)(F)F)N(C(=O)Nc1cncc(-c3ccccc3C)c1)CC2` [Example 90], the melting point lay in the range of 103 to 105 °C.

The compound `COc1cc2c(cc1C(F)(F)F)N(C(=O)Nc1cncc(-c3ccccc3C=O)c1)CC2` [Example 91] returned a melting point of 114 to 116 °C.

As to `COc1cc2c(cc1C(F)(F)F)N(C(=O)Nc1cncc(-c3ccccc3CO)c1)CC2` [Example 92], the melting point is 190 to 192 °C.

On to `COc1cc2c(cc1C(F)(F)F)N(C(=O)Nc1cncc(-c3ccc(F)c(Cl)c3)c1)CC2` [Example 93], for which the melting point lay within 113 to 115 °C.

Compound `COc1cc2c(cc1C(F)(F)F)N(C(=O)Nc1ccc(-c3ccccc3)nc1)CC2` [Example 94] registered a melting point of 204 to 207 °C.

`COc1cc2c(cc1C(F)(F)F)N(C(=O)Nc1ccc(-c3cccnc3)cn1)CC2` [Example 95] showed a melting point above 225 °C.

Regarding `COc1cc2c(cc1C(F)(F)F)N(C(=O)Nc1ccc(-n3cccn3)nc1)CC2` [Example 96], the melting point is above 225 °C.

Compound `COc1cc2c(cc1C(F)(F)F)N(C(=O)Nc1cccc(-c3ccc(N(C)C)cc3)c1)CC2` [Example 97] gave a melting point of 213 to 215 °C.

Values taken from patent publication US6638953B2, “Indole derivatives as 5-HT receptor antagonist” (SmithKline Beecham p.l.c., priority 1995, dated 2003).
